According to article PMC6337391 (Molecules, 2019):
Read-outs that look alike come from different tables or passages of the source.

How the values were obtained:
[1] = Reducing activity with the stable radical DPPH
In short: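 DPPH (final 0.05 mM) in absolute ethanol mixed with an equal volume of compound at 0.05 or 0.1 mM, ethanol as control. Absorbance at 517 nm read at room temperature after 20 and 60 min, expressed as reducing activity RA%.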

[2] = Inhibition of linoleic acid lipid peroxidation (AAPH)
In short: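 Sodium linoleate oxidation was initiated by AAPH in 0.05 M phosphate buffer, pH 7.4, at 37 °C, with test compound present and DMSO as blank. Conjugated diene hydroperoxide formation was followed as the absorbance increase at 234 nm.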

soybean lipoxygenase [3] = biological target: T1, soybean lipoxygenase (Glycine max, UniProt P08170); assay: biochemical; format: biochemical; conditions: soybean LOX; for IC50: read-out: LOX IC50
T1 sequence (P08170 1-839): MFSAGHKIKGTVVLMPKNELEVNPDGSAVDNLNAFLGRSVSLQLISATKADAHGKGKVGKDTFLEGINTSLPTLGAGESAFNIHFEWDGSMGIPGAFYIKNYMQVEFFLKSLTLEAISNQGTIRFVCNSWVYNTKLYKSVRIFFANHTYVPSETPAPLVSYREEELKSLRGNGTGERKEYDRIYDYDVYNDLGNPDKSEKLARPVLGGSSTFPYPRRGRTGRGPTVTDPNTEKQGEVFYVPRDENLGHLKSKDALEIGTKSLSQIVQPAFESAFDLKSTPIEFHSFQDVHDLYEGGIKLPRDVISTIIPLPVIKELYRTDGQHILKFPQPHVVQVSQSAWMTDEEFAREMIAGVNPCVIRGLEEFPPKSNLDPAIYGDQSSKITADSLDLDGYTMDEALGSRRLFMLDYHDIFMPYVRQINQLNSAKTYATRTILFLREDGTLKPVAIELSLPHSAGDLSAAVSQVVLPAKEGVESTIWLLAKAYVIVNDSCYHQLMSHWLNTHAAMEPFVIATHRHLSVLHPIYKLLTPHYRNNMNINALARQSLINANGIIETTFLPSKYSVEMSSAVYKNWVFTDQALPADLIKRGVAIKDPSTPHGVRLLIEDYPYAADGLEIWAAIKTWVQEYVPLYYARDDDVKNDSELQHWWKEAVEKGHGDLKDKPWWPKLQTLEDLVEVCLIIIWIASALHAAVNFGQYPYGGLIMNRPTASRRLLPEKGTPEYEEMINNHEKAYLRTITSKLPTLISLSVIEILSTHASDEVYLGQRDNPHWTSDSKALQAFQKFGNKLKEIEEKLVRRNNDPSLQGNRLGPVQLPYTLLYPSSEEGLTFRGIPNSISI
In short: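 Soybean LOX (enzyme solution 1/9 × 10^−4 w/v in saline) incubated at room temperature with sodium linoleate ([…]) in tris buffer pH 9. Compounds added from DMSO stocks. IC50 derived from several concentrations.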

[4] = ABTS•+ decolorization assay
In short: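 Compounds (10 mM DMSO stocks, diluted) added to ABTS•+ radical generated by potassium persulfate oxidation of ABTS. Decolorization followed as absorbance at room temperature, with Trolox as standard.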

[5] = In vitro lipid peroxidation of liposomes
[6] = Lipophilicity as RM values by RP-TLC; format: physicochemical; parameters: key: RM = log[(1/Rf) − 1]; conditions: methanol/water 70/30, SD < 10%
In short: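 Reversed-phase TLC on silica gel plates impregnated with 5% (v/v) liquid paraffin, methanol/water 70/30 (v/v) mobile phase, saturated tanks at 24 °C, UV detection. RM = log[(1/Rf) − 1] from five Rf measurements.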

[7] = parameters: method as in PMID 25798685; conditions: DPPH, cited from earlier work
soybean lipoxygenase [8] = biological target: T1, soybean lipoxygenase; parameters: method as in PMID 25798685; conditions: cited from earlier work
[9] = parameters: method as in PMID 25798685; conditions: RP-TLC, methanol/water 70/30, SD < 10%; cited from earlier work
[10] = biological target: acetyl-cholinesterase (AChE) (Electrophorus electricus, UniProt O42275); conditions: cited from earlier work
[11] = parameters: method as in PMID 25798685; conditions: cited from earlier work
[12] = system: L929 mouse fibroblasts cells; parameters: method as in PMID 25798685; conditions: 24-h incubation, cited from earlier work
[13] = system: L929 mouse fibroblasts cells; assay: Cytotoxicity, propidium iodide fluorescence method; format: cell-based; conditions: 24-h incubation
In short: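 L929 cells in EMEM with 10% horse serum were allowed to attach for 24 h, then exposed to 1, 10, 20, 50 and 100 μM compound for 24 h at 37 °C. Cells were detached, stained with propidium iodide, and cell death was measured by flow cytometry.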

Sequence of acetyl-cholinesterase (AChE) (O42275 24-633): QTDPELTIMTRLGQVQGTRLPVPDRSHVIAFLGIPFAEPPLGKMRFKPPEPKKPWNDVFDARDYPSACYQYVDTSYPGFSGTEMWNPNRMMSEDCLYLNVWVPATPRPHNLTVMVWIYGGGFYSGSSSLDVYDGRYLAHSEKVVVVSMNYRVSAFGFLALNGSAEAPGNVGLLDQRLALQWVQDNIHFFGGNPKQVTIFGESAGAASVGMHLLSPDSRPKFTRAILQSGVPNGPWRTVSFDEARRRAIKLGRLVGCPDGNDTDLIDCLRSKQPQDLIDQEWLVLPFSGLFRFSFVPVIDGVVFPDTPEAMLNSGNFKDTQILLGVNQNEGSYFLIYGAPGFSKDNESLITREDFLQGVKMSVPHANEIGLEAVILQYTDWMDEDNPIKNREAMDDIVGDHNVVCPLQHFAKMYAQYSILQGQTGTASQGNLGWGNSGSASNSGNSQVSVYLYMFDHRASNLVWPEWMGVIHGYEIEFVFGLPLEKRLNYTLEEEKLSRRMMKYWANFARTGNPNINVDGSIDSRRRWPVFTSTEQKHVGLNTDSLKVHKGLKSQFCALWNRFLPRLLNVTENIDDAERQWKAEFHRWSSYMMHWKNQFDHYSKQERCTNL

Structure (SMILES) | RA% 100 μM 20 min [1] | RA% 100 μM 60 min [1] | AAPH% @ 100 μM (anti-lipid peroxidation) [2] [%] | % LOX Inhb. @ 100 μM (soybean lipoxygenase [3]) [%] | ABTS•+ Inhb. % @ 100 μM [4] | % Inhb. of Liposomes LP @ 100 μM [5] [%] | RM [6] | RA% 100 μM 20 min [7] [%] | RA% 100 μM 60 min [7] [%] | % LOX Inhb. @ 100 μM (soybean lipoxygenase [8]) [%] | RM [9] | % AChE Inhb. @ 100 μM [10] [%] | ABTS•+ Inhb. % @ 100 μM [11] | 1 μM Average (% pi) ± σ [12] [%] | 10 μM Average (% pi) ± σ [12] [%] | 20 μM Average (% pi) ± σ [12] [%] | 50 μM Average (% pi) ± σ [12] [%] | 100 μM Average (% pi) ± σ [12] [%] | 1 μM Average (% pi) ± σ [13] [%] | 20 μM Average (% pi) ± σ [13] [%] | also measured
CN(C)c1ccc(/C=C/C=C/C(=O)c2ccc(OCCOc3ccc(C(=O)/C=C/C=C/c4ccc(N(C)C)cc4)cc3)cc2)cc1 [ei] | No | no | 71 | 77 | 98% | 4 | 0.56 |  |  |  |  |  |  |  |  |  |  |  |  |  | IC50 (soybean lipoxygenase [3]): 62.5 µM
CN(C)c1ccc(/C=C/C=C/C(=O)c2ccc(OCCCCCCCOc3ccc(C(=O)/C=C/C=C/c4ccc(N(C)C)cc4)cc3)cc2)cc1 [evi, (2E,2′E,4E,4′E)-1,1′-((heptane-1,7-diylbis(oxy))bis(4,1-phenylene))bis(5-(4-(dimethylamino)phenyl)penta-2,4-dien-1-one)] | No | no | 64 | 65 | 79% | 64 |  |  |  |  |  |  |  |  |  |  |  |  |  |  | IC50 (soybean lipoxygenase [3]): 76 µM
CN(C)c1ccc(/C=C/C=C/C(=O)c2ccc(O)cc2)cc1 [a3, (2E,4E)-5-(4-(dimethylamino)phenyl)-1-(4-hydroxyphenyl) penta-2,4-dien-1-one] |  |  |  |  |  |  |  | 18 | 17 | 56 | −0.69 | 50 | 12% | 14 ± 3.5 | 15 ± 0.8 | 19 ± 1.4 | 14 ± 0.7 | 14 ± 0.7 |  |  | IC50 (soybean lipoxygenase [8]; soybean LOX): 100 µM
Cc1c(C)c2c(c(C)c1O)CCC(C)(C(=O)O)O2 (centres unmarked) [Trolox, reference compound] |  |  | 93 |  | 96% | 69 |  |  |  |  |  |  |  |  |  |  |  |  |  |  | 
O=C(/C=C/c1cccc2ccccc12)c1ccc(O)cc1 [a4, (E)-1-(4-hydroxyphenyl)-3-(naphthalen-1-yl) prop-2-en-1-one] |  |  |  |  |  |  |  | 7 | 3 | 44 | −0.26 | 25 | No | 8.5 ± 2.1 | 12 ± 4.2 | 29.5 ± 0.6 | 51 ± 9.9 | 51 ± 9.9 |  |  | 
CN(C)c1ccc(/C=C/C=C/C(=O)c2ccc(OCCCCCOc3ccc(C(=O)/C=C/C=C/c4ccc(N(C)C)cc4)cc3)cc2)cc1 [eiv, (2E,2′E,4E,4′E)-1,1′-((pentane-1,5-diylbis(oxy))bis(4,1-phenylene))bis(5-(4-(dimethylamino)phenyl)penta-2,4-dien-1-one)] | No | no | 72 | 23 | 73% | 77 | 0.13 |  |  |  |  |  |  |  |  |  |  |  |  |  | 
O=C(/C=C/c1cccs1)c1ccc(O)cc1 [a5, (E)-1-(4-hydroxyphenyl)-3-(thiophen-2-yl) prop-2-en-1-one] | 17% | 3% | 23 | 9 | No |  | −0.62 |  |  |  |  |  |  |  |  |  |  |  | 11.36 ± 0.62 | 28.32 ± 2.91 | 50 μM Average (% pi) ± σ [13]: 36.15 ± 2.33%; 100 μM Average (% pi) ± σ [13]: 36.15 ± 2.33%
O=C(/C=C/c1ccc(OCc2ccc(Br)cc2)cc1)c1ccc(O)cc1 [a1, (E)-3-(4-((4-bromobenzyl)oxy)phenyl)-1-(4-hydroxyphenyl) prop-2-en-1-one] |  |  |  |  |  |  |  | 1 | 6 | 14 | 0.34 | 7 | No | 1 ± 0.6 | 5 ± 2.8 | 5.5 ± 0.71 | 32 ± 4.9 | 32 ± 4.9 |  |  | 
O=C(/C=C/C=C/c1ccccc1)c1ccc(O)cc1 [a7, (2E,4E)-1-(4-hydroxyphenyl)-5-phenylpenta-2,4-dien-1-one] | 19% | 6% | 31 | 4 | 12% |  | −0.64 |  |  |  |  |  |  |  |  |  |  |  | 6.85 ± 3.12 | 9.24 ± 6.49 | 10 μM Average (% pi) ± σ [13]: 9.27 ± 1.9%; 50 μM Average (% pi) ± σ [13]: 60.95 ± 0.01%; 100 μM Average (% pi) ± σ [13]: 60.95 ± 0.01%
O=C(/C=C/c1cccs1)c1ccc(OCCCOc2ccc(C(=O)/C=C/c3cccs3)cc2)cc1 [c5, (2E,2′E)-1,1′-((propane-1,3-diylbis-(oxy))bis-(4,1-phenylene)) bis-(3-(thiophen-2-yl)prop-2-en-1-one)] | No | no | 46 | 32 | No |  | 0.43 |  |  |  |  |  |  |  |  |  |  |  | 0.32 ± 0.45 | 3.02 ± 1.36 | 10 μM Average (% pi) ± σ [13]: 0.97 ± 0.2%; 50 μM Average (% pi) ± σ [13]: 7.26 ± 0.3%; 100 μM Average (% pi) ± σ [13]: 7.26 ± 0.3%
CC(/C=C/C(=O)c1ccc(O)cc1)=C\c1ccccc1 [a8, (2E,4E)-1-(4-hydroxyphenyl)-4-methyl-5-phenylpenta-2,4-dien-1-one] | 6% | 2% | 32 | 14 | No |  | −0.68 |  |  |  |  |  |  |  |  |  |  |  | 1.39 ± 0.1 | 1.84 ± 2.05 | 10 μM Average (% pi) ± σ [13]: 2.95 ± 1.23%; 50 μM Average (% pi) ± σ [13]: 8.15 ± 0.34%; 100 μM Average (% pi) ± σ [13]: 8.15 ± 0.34%
O=C(/C=C/c1cccc(Oc2ccccc2)c1)c1ccc(O)cc1 [a2, (E)-1-(4-hydroxyphenyl)-3-(3-phenoxyphenyl) prop-2-en-1-one] |  |  |  |  |  |  |  | 3 | 4 | 10 | 0.36 | 26 | No | 1 ± 0.5 | 3.5 ± 0.7 | 27.5 ± 8.9 | 63 ± 11.2 | 63 ± 11.2 |  |  | 
